These results are taken from ChEMBL document CHEMBL1126639, “Centrally acting serotonergic and dopaminergic agents. 2. Synthesis and structure-activity relationships of 2,3,3a,4,9,9a-hexahydro-1H-benz[f]indole derivatives” (J Med Chem, 1993).

The term IC50 denotes the concentration at which inhibition is half-maximal. Higher therefore signals lower potency.

In assay [1] the test system is Mus musculus. Nature of the assay: Maximum decrease in temperature when compound is administered subcutaneously. Type of assay: functional.
Assay [2] deals with Mus musculus. Nature of the assay: Time of effect in the isolation-induced aggression behavioral assay in the mouse when a dose of 0.0 micro mol/kg is administered perorally. In kind it is functional.
In assay [3] the test system is Rattus norvegicus. Nature of the assay: Effect on the synthesis rates of dopamine (DOPA accumulation) in the rat ventral limbic brain region at 10.7 uM/kg. Type of assay: functional, Limbic system.
Assay [4] concerns Mus musculus. Nature of the assay: Effective dose on hypothermia in mouse when administered subcutaneously. In kind it is functional.
Assay [5] deals with Mus musculus. Nature of the assay: Time of effect in the isolation-induced aggression behavioral assay in the mouse when a dose of 3.6 micro mol/kg is administered perorally. In kind it is functional.
In assay [6] the test system is Rattus norvegicus. Nature of the assay: Inhibition of firing rates of dopaminergic neurons in the substantia nigra pars compacta by intravenous injection in rats. Type of assay: functional.
The subject of assay [7] is Mus musculus. Nature of the assay: Time of effect in the face-to-face behavioral assay in the mouse when a dose of 0.4 umol/kg is administered perorally. Type of assay: functional.
Assay [8] relates to Mus musculus. Nature of the assay: Time of effect in the isolation-induced aggression behavioral assay in the mouse when a dose of 36 micro mol/kg is administered intraperitoneally. Type of assay: functional.
In the next assay the target is D(2) dopamine receptor (Rattus norvegicus, UniProt P61169). Nature of the assay: Inhibitory concentration against [3H]raclopride-labeled dopamine receptor D2 in rat striatum. Type of assay: tissue-based.
In assay [9] the test system is Mus musculus. Nature of the assay: (§1) Time of effect in the face-to-face behavioral assay in the mouse when a dose of […] is administered perorally. In kind it is functional.
Assay [10] concerns Mus musculus. Nature of the assay: Maximum decrease in temperature when compound is administered through peroral route. In kind it is functional.
For assay [11], the system named is Mus musculus. Nature of the assay: Time of effect in the isolation-induced aggression behavioral assay in the mouse when a dose of 36 micro mol/kg is administered perorally. Type of assay: functional.
For assay [12], the system named is Rattus norvegicus. Nature of the assay: Inhibition of firing rates of serotonergic neurons in the dorsal raphe nucleus by intravenous injection in rats. Type of assay: functional.
For assay [13], the system named is Mus musculus. Nature of the assay: Time of effect in the isolation-induced aggression behavioral assay in the mouse when a dose of 0.0 umol/kg is administered intraperitoneally. Type of assay: functional.
Assay [14] has as its system Mus musculus. Nature of the assay: Time of effect in the isolation-induced aggression behavioral assay in the mouse when a dose of 11 umol/kg is administered intraperitoneally. Type of assay: functional.
The subject of assay [15] is Mus musculus. Nature of the assay: Time of effect in the isolation-induced aggression behavioral assay in the mouse when a dose of 1.1 micro mol/kg is administered perorally. Type of assay: functional.
The subject of assay [16] is Rattus norvegicus. Nature of the assay: Effect on the synthesis rates of serotonin (5-HTP accumulation) in the rat ventral limbic brain region 10.7 umol/kg. In kind it is functional, Limbic system.
Assay [17] deals with Mus musculus. Nature of the assay: Time of effect in the isolation-induced aggression behavioral assay in the mouse when a dose of 11 micro mol/kg is administered perorally. In kind it is functional.
The test system of assay [18] is Mus musculus. The description is as §1. Type of assay: functional. This is another data set of the same source.
Assay [19] concerns Mus musculus. Nature of the assay: Effective dose on hypothermia in mouse when administered through peroral route. In kind it is functional.
Assay [20] deals with Mus musculus. Nature of the assay: Antagonism of apomorphine in reserpinized mice when a dose of 33 micro mol/kg is administered intraperitoneally. Type of assay: functional.
Assay [21] has as its system Mus musculus. Nature of the assay: Antagonism of apomorphine for 0-10 minutes in reserpinized mice when a dose of 33 micro mol/kg is administered intraperitoneally. In kind it is functional.
Assay [22] concerns Mus musculus. Nature of the assay: Ability to stimulate dopaminergic systems by effect on locomotor activity in reserpinized mice when a dose of 0.3 micro mol/kg is administered intraperitoneally. Type of assay: functional.
For assay [23], the system named is Mus musculus. Nature of the assay: Ability to stimulate dopaminergic systems by effect on locomotor activity in reserpinized mice when a dose of 3.3 micro mol/kg is administered intraperitoneally. In kind it is functional.
The subject of assay [24] is Mus musculus. Nature of the assay: Antagonism of apomorphine for 0-10 minutes in reserpinized mice when a dose of 0.3 micro mol/kg is administered intraperitoneally. In kind it is functional.
Assay [25] deals with Mus musculus. Nature of the assay: Antagonism of apomorphine for 10-20 minutes in reserpinized mice when a dose of 33 micro mol/kg is administered intraperitoneally. In kind it is functional.
In assay [26] the test system is Mus musculus. Nature of the assay: Antagonism of apomorphine for 10-20 minutes in reserpinized mice when a dose of 0.3 micro mol/kg is administered intraperitoneally. Type of assay: functional.
The subject of assay [27] is Mus musculus. Nature of the assay: Ability to stimulate dopaminergic systems by effect on locomotor activity in reserpinized mice when a dose of 33 micro mol/kg is administered intraperitoneally. Type of assay: functional.
Assay [28] relates to Mus musculus. Nature of the assay: Antagonism of apomorphine for 0-10 minutes in reserpinized mice when a dose of 3.3 micro mol/kg is administered intraperitoneally. Type of assay: functional.
Assay [29] concerns Mus musculus. Nature of the assay: Antagonism of apomorphine in reserpinized mice when a dose of 3.3 micro mol/kg is administered intraperitoneally. Type of assay: functional.
In assay [30] the test system is Mus musculus. Nature of the assay: Antagonism of apomorphine in reserpinized mice when a dose of 0.3 micro mol/kg is administered intraperitoneally. Type of assay: functional.
For assay [31], the system named is Mus musculus. Nature of the assay: Antagonism of apomorphine for 10-20 minutes in reserpinized mice when a dose of 3.3 micro mol/kg is administered intraperitoneally. In kind it is functional.
In assay [32] the test system is Mus musculus. Nature of the assay: Antagonism of apomorphine for 10-20 minutes in reserpinized mice when a dose of 2.7 micro mol/kg is administered intraperitoneally. Type of assay: functional.
For assay [33], the system named is Rattus norvegicus. Nature of the assay: Effect on the synthesis rates of serotonin in the rat ventral limbic brain region 2.7 micro mol/kg. Type of assay: functional, Limbic system.
For assay [34], the system named is Mus musculus. Nature of the assay: Antagonism of apomorphine in reserpinized mice when a dose of 2.7 micro mol/kg is administered intraperitoneally. Type of assay: functional.
In assay [35] the test system is Rattus norvegicus. Nature of the assay: Effect on the synthesis rates of dopamine in the rat ventral limbic brain region at 2.7 micro mol/kg. In kind it is functional, Limbic system.
The subject of assay [36] is Mus musculus. Nature of the assay: Antagonism of apomorphine for 0-10 minutes in reserpinized mice when a dose of 2.7 micro mol/kg is administered intraperitoneally. In kind it is functional.
Assay [37] has as its system Mus musculus. Nature of the assay: Ability to stimulate dopaminergic systems by effect on locomotor activity in reserpinized mice when a dose of 2.7 micro mol/kg is administered intraperitoneally. Type of assay: functional.

Chain of D(2) dopamine receptor (P61169 whole entry): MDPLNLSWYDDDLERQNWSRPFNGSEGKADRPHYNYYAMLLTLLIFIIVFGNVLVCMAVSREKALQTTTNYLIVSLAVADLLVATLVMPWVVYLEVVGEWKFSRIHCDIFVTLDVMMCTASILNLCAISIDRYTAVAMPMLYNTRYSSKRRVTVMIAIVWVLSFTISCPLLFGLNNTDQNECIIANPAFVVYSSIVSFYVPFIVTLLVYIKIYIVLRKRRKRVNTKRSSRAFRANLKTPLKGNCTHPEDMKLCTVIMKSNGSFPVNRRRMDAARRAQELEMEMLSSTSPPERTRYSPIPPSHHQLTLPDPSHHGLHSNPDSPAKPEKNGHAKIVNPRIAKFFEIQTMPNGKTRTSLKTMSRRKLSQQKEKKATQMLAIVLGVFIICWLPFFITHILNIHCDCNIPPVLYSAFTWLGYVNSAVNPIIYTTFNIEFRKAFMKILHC

With `C=CCN1CC[C@@H]2Cc3c(cccc3OC)C[C@H]21`, the Max temperature decrease in the assay on Mus musculus [1] amounted to 4.5; in the assay on Mus musculus [10], 5.6. Besides, the Time is listed as 5 s in the assay with Mus musculus [2]; 198 s in the assay with Mus musculus [5]; 1.7 s in the assay with Mus musculus [7]; 600 s in the assay with Mus musculus [8]; 1.5 s with Mus musculus [9]; 397 s with Mus musculus [11]. Also, the Time turned out to be 5 s with Mus musculus [13]; 570 s with Mus musculus [14]; 109 s with Mus musculus [15]; 257 s in the assay on Mus musculus [17]; 1 s with Mus musculus [18]. Moreover, the Control in the assay on Rattus norvegicus [3] is given as -37%; with Rattus norvegicus [16] it was -41%. For the same compound, the ED50 worked out at 0.6 µM/kg in the assay on Mus musculus [4], 0.05 µmol/kg in the assay on Rattus norvegicus [6], 0.08 µM/kg in the assay with Rattus norvegicus [12] and 1.1 µM/kg in the assay on Mus musculus [19]. The IC50 against D(2) dopamine receptor is greater than 1 µM.

As for `CCCN1CCCC(c2cccc(O)c2)C1` (single isomer, unassigned; (-)), the Locomotor activity came out at 41 with Mus musculus [20]; 59 with Mus musculus [21]; 31 with Mus musculus [22]; 8 in the assay with Mus musculus [23]; 127 with Mus musculus [24]; 58 with Mus musculus [25]. The Locomotor activity is on record as 106 with Mus musculus [26]; 13 in the assay with Mus musculus [27]; 91 with Mus musculus [28]; 106 with Mus musculus [29]; 118 in the assay on Mus musculus [30]; 83 in the assay with Mus musculus [31].

For `O=C(CCCN1CCC(O)(c2ccc(Cl)cc2)CC1)c1ccc(F)cc1` [HALOPERIDOL], the Locomotor activity in the assay on Mus musculus [32] is 28; in the assay on Mus musculus [22], 9; with Mus musculus [24] it was 94; in the assay with Mus musculus [34], 10; with Mus musculus [26], 71; in the assay on Mus musculus [36], 72. Moreover, the Locomotor activity amounted to 58 in the assay with Mus musculus [30] and 1 in the assay on Mus musculus [37]. Further, the ED50 worked out at 0.018 µmol/kg in the assay on Rattus norvegicus [6] and 0.019 µmol/kg in the assay with Rattus norvegicus [12] (Rattus norvegicus, Dorsal raphe nucleus, iv, read-out: ED50). In addition, the Control in the assay with Rattus norvegicus [33] was -6.6%; in the assay on Rattus norvegicus [35], 144%.
